# Results from patent US5310675A, “Procaryotic carbonyl hydrolases” (priority 1991, dated 1994).
# *1 amine or outer side, *2 acyl side, *3 side chain or, on linkers, in order; H or OH if unused. Where a SMILES comes first, the peptide text is derived from it. The star is where a group is joined. pNA = O=[N+]([O-])c1ccc(N*)cc1; Suc = O=C(CCC(=O)[*:2])[*:1]; Bz = O=C(c1ccccc1)*
# Assays:
# Assay in all cases: Kinetic parameters from progress curves, p-nitroanilide substrates
# Type in all cases: biochemical
# Conditions in all cases: 25° C., 0.1M tris buffer, pH 8.6
# [1] = molecular target: T1, B. amyloliquefaciens subtilisin, wild type (gly-166) (Bacillus amyloliquefaciens, UniProt P00782)
# T1 construct: codons for the mature subtilisin corresponding to that secreted by the B. amyloliquefaciens; made in house; host or cells: B. subtilis BG2036 (transformed with pS4-5)
# Procedure: (§1) B. subtilis strain BG2036 obtained by the method of Example 11 was transformed by the plasmids of Examples 14, 15 or 20 and by pS4-5 as a control. Transformants were plated or cultured in shaker flasks for 16 to 48 h at 37° C. in LB media plus 12.5 μg/ml chloramphenicol. Mutant enzymatically active subtilisin was recovered by dialyzing cell broth against 0.01M sodium phosphate buffer, pH 6.2. The dialyzed broth was then titrated to pH 6.2 with 1N HCl and loaded on a 2.5×2 cm column of CM Cellulose (CM-52 Whatman). After washing with 0.01M sodium phosphate, pH 6.2, the subtilisins (except mutants at position +222) were eluted with the same buffer made 0.08N in NaCl. The mutant subtilisins at position +222 were each eluted with 0.1M sodium phosphate, pH 7.0. The purified mutant and wild type enzymes were then used in studies of oxidation stability, Km, Kcat, Kcat/Km ratio, pH optimum, and changes in substrate specificity.
# (§2) Various mutants for glycine+166 were screened for modified Kcat, Km and Kcat/Km ratios. Kinetic parameters were obtained by analysis of the progress curves of the reactions. The rate of reaction was measured as a function of substrate concentration. Data was analyzed by fitting to the Michaelis-Menton equation using the non-linear regression algorithm of Marquardt (Marquardt, D. W. 1963, "J. Soc. Ind. Appl. Math." 11, 431-41).
# [2] = molecular target: T2, B. amyloliquefaciens subtilisin variant asp+166 (D166; glycine+166 to asp) (Bacillus amyloliquefaciens, UniProt P00782, G273D)
# T2 construct: codons for the mature subtilisin corresponding to that secreted by the B. amyloliquefaciens; made in house; host or cells: B. subtilis BG2036
# Procedure: as §1, §2
# [3] = molecular target: T3, B. amyloliquefaciens subtilisin variant asn+166 (glycine+166 to asn) (Bacillus amyloliquefaciens, UniProt P00782, G273N)
# T3 construct: codons for the mature subtilisin corresponding to that secreted by the B. amyloliquefaciens; made in house; host or cells: B. subtilis BG2036
# Procedure: as §1, §2
# [4] = molecular target: T4, B. amyloliquefaciens subtilisin variant glu+166 (E166; glycine+166 to glu) (Bacillus amyloliquefaciens, UniProt P00782, G273E)
# T4 construct: codons for the mature subtilisin corresponding to that secreted by the B. amyloliquefaciens; made in house; host or cells: B. subtilis BG2036
# Procedure: as §1, §2
# [5] = molecular target: T5, B. amyloliquefaciens subtilisin variant hys+166 (glycine+166 to his) (Bacillus amyloliquefaciens, UniProt P00782, G273H)
# T5 construct: codons for the mature subtilisin corresponding to that secreted by the B. amyloliquefaciens; made in house; host or cells: B. subtilis BG2036
# Procedure: as §1, §2
# [6] = molecular target: T6, B. amyloliquefaciens subtilisin variant ala+166 (A166; glycine+166 to ala) (Bacillus amyloliquefaciens, UniProt P00782, G273A)
# T6 construct: codons for the mature subtilisin corresponding to that secreted by the B. amyloliquefaciens; made in house; host or cells: B. subtilis BG2036
# Procedure: as §1, §2
# [7] = molecular target: T7, B. amyloliquefaciens subtilisin variant lys+166 (glycine+166 to lys) (Bacillus amyloliquefaciens, UniProt P00782, G273K)
# T7 construct: codons for the mature subtilisin corresponding to that secreted by the B. amyloliquefaciens; made in house; host or cells: B. subtilis BG2036
# Procedure: as §1, §2
# [8] = molecular target: T8, B. amyloliquefaciens subtilisin variant arg+166 (glycine+166 to arg) (Bacillus amyloliquefaciens, UniProt P00782, G273R)
# T8 construct: codons for the mature subtilisin corresponding to that secreted by the B. amyloliquefaciens; made in house; host or cells: B. subtilis BG2036
# Procedure: as §1, §2
# [9] = molecular target: T9, B. amyloliquefaciens subtilisin variant phe+166 (glycine+166 to phe) (Bacillus amyloliquefaciens, UniProt P00782, G273F)
# T9 construct: codons for the mature subtilisin corresponding to that secreted by the B. amyloliquefaciens; made in house; host or cells: B. subtilis BG2036
# Procedure: as §1, §2
# T2 sequence (P00782 108-382 G273D): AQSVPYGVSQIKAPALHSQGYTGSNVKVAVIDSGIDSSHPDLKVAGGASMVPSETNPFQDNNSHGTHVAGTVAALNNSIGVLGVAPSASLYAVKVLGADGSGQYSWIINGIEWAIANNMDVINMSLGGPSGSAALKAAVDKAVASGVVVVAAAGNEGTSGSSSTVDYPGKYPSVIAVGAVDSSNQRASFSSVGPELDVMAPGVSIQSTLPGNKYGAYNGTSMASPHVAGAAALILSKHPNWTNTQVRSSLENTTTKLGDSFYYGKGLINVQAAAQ
# T4 sequence (P00782 108-382 G273E): as the sequence (P00782 108-382 G273D) above, with D166E counted along it
# T3 sequence (P00782 108-382 G273N): as the sequence (P00782 108-382 G273D) above, with D166N counted along it
# T1 sequence (P00782 108-382): as the sequence (P00782 108-382 G273D) above, with D166G counted along it
# T9 sequence (P00782 108-382 G273F): as the sequence (P00782 108-382 G273D) above, with D166F counted along it
# T7 sequence (P00782 108-382 G273K): as the sequence (P00782 108-382 G273D) above, with D166K counted along it
# T6 sequence (P00782 108-382 G273A): as the sequence (P00782 108-382 G273D) above, with D166A counted along it
# T5 sequence (P00782 108-382 G273H): as the sequence (P00782 108-382 G273D) above, with D166H counted along it
# T8 sequence (P00782 108-382 G273R): as the sequence (P00782 108-382 G273D) above, with D166R counted along it
Compound,Km [1] [µM],Kcat [2] [s⁻¹],Km [2] [µM],Km [3] [µM],Kcat [4] [s⁻¹],Km [4] [µM],Km [5] [µM],Km [6] [µM],Km [7] [µM],Km [8] [µM],Kcat [9] [s⁻¹],Km [9] [µM]
"CC(C)[C@H](NC(=O)c1ccccc1)C(=O)NCC(=O)N[C@@H](CCCNC(=N)N)C(=O)Nc1ccc([N+](=O)[O-])cc1 [BVGRpN, benzoyl-L-Valyl-Glycyl-L-Arginyl-p-nitroanilide] (Bz-Val-Gly-Arg-pNA)",1100,2,41,120,2,27,,,,,,
"C[C@H](NC(=O)CCC(=O)O)C(=O)N[C@@H](C)C(=O)N1CCC[C@H]1C(=O)N[C@@H](Cc1ccccc1)C(=O)Nc1ccc([N+](=O)[O-])cc1 [sAAPFpN, succinyl-L-Alanyl-L-Alanyl-L-Prolyl-L-Phenylalanyl-p-nitro-anilide] (Suc-AAPF-pNA)",140,,580,140,,340,110,27,34,62,3,14
